Experimental findings from ChEMBL document CHEMBL5360547 (Eur J Med Chem, 2023) are described below.

Molecules are shown by their SMILES. Calls of active or inactive are those of the source. The rule behind the calls is not given here.

The subject of data set [1] is SH-SY5Y. Description: Neuroprotective activity against oxygen glucose deprivation induced ischemic stroke model in human SH-SY5Y cells assessed as cell viability at 20 uM incubated for 24 hrs by CCK-8 assay. Conditions: read-out: Activity. The class given is functional. (Formazan colour is commonly taken as a measure of viable cells.)
Data set [2] relates to SH-SY5Y. Description: Neuroprotective activity against oxygen glucose deprivation induced ischemic stroke model in human SH-SY5Y cells assessed as cell viability at 2 uM incubated for 24 hrs by CCK-8 assay. The class given is functional. Conditions: read-out: Activity.
In data set [3] the test system is Cortical neurone. Description: Cytotoxicity against primary C57BL/6J E14-17 mouse Cortical neuron assessed as decrease in cell viability upto 50 uM incubated for 24 hrs by CCK-8 assay. The data set is classed as toxicity, cell-based.
Data set [4] relates to Cortical neurone. Description: Neuroprotective activity against oxygen glucose deprivation induced ischemic stroke model in primary C57BL/6J E14-17 mouse Cortical neurons assessed as increase in cell viability at 0.5 to 20 uM incubated for 24 hrs by CCK-8 assay. To be noted: dose 0.5-20 µM. The data set is classed as functional, cell-based.
A short description of the next data set: in vivo. Conditions: C57BL/6, mouse, ip, 20 mg/kg.
Data set [5] relates to Mus musculus. Description: Neuroprotective activity against middle cerebral artery occlusion-induced brain infarction C57BL/6 mouse model assessed as decrease in neurological deficit score at 10 mg/kg, ip and measured after 24 hrs by animal behavioral study relative to control. The data set is classed as functional.
Data set [6] in a line: Toxicity in middle cerebral artery occlusion-induced brain infarction C57BL/6 mouse model assessed as survival rate at 10 mg/kg, ip and measured after 24 hrs. The data set is classed as organism-based. To be noted: in vivo.
For data set [7], the system named is Mus musculus. The data set is described as follows: Neuroprotective activity against middle cerebral artery occlusion-induced brain infarction C57BL/6 mouse model assessed as reduction in cerebral infarct volume at 20 mg/kg, ip and measured after 24 hrs by TTC staining based assay. The data set is classed as functional, organism-based.
Data set [8] has as its system Cortical neurone. The data set is described as follows: Neuroprotective activity against oxygen glucose deprivation induced ischemic stroke model in primary C57BL/6J E14-17 mouse Cortical neurons assessed as increase in cell viability at 10 uM incubated for 24 hrs by CCK-8 assay (Rvb= 57.43 +/- 2.54 %). The data set is classed as functional.
In data set [9] the test system is Cortical neurone. Description: Cytotoxicity against primary C57BL/6J E14-17 mouse Cortical neuron assessed as decrease in cell viability at 1 uM incubated for 24 hrs by CCK-8 assay relative to control. The class given is toxicity, cell-based.
Data set [10] has as its system Cortical neurone. The data set is described as follows: Cytotoxicity against primary C57BL/6J E14-17 mouse Cortical neuron assessed as decrease in cell viability at 10 uM incubated for 24 hrs by CCK-8 assay relative to control. The data set is classed as toxicity, cell-based.
For data set [11], the system named is Cortical neurone. Description: Neuroprotective activity against oxygen glucose deprivation induced ischemic stroke model in primary C57BL/6J E14-17 mouse Cortical neurons assessed as increase in cell viability at 1 uM incubated for 24 hrs by CCK-8 assay (Rvb= 57.43 +/- 2.54 %). The class given is functional.
Data set [12] concerns Cortical neurone. The data set is described as follows: Cytotoxicity against primary C57BL/6J E14-17 mouse Cortical neuron assessed as decrease in cell viability at 0.1 to 20 uM incubated for 24 hrs by CCK-8 assay. Conditions: dose 0.1-20 µM. The data set is classed as toxicity, cell-based.
The test system of data set [13] is Cortical neurone. Description: Neuroprotective activity against oxygen glucose deprivation induced ischemic stroke model in primary C57BL/6J E14-17 mouse Cortical neurons assessed as increase in cell viability at 0.1 to 20 uM incubated for 24 hrs by CCK-8 assay. The class given is functional, cell-based. To be noted: dose 0.1-20 µM.
For data set [14], the system named is Cortical neurone. Description: Cytotoxicity against primary C57BL/6J E14-17 mouse Cortical neuron assessed as decrease in cell viability at 10 to 20 uM incubated for 24 hrs by CCK-8 assay. The class given is toxicity, cell-based. Conditions: dose 10-20 µM.
In data set [15] the test system is Cortical neurone. The data set is described as follows: Neuroprotective activity against oxygen glucose deprivation induced ischemic stroke model in primary C57BL/6J E14-17 mouse Cortical neurons assessed as increase in cell viability at 5 uM incubated for 24 hrs by CCK-8 assay (Rvb= 57.43 +/- 2.54 %). The data set is classed as functional.
Data set [16] deals with Cortical neurone. Description: Cytotoxicity against primary C57BL/6J E14-17 mouse Cortical neuron assessed as decrease in cell viability at 0.1 to 5 uM incubated for 24 hrs by CCK-8 assay. The class given is toxicity, cell-based. To be noted: dose 0.1-5 µM.

Regarding `O=C(/C=C/c1ccc(O)c2c1[C@H](C(=O)O[C@H](Cc1ccc(O)c(O)c1)C(=O)O)[C@@H](c1ccc(O)c(O)c1)O2)O[C@H](Cc1ccc(O)c(O)c1)C(=O)O`, the viability at 20 µM in the data set on SH-SY5Y [1] worked out at 78.1%. Besides, the viability at 2 µM in the data set on SH-SY5Y [2] amounted to 73.4%.
Take `CN(C)[C@H]1CC[C@@H](c2ccc(Cl)c(Cl)c2)c2ccccc21`: in the data set on Cortical neurone [3], the Activity result is given as “Non-Toxic”. Also, the result in the data set on Cortical neurone [4] was Active.
As for `CCCCCCCCN(C)[C@H]1CC[C@@H](c2ccc(Cl)c(Cl)c2)c2ccccc21` [listing 1 of 2 here], the mortality (commonly the share of the test organisms that died) at 24 h in the data set “in vivo” worked out at 35.7%. For the same molecule, the Activity entry was “Non-Toxic” in the data set on Cortical neurone [3] and 1.5 in the data set on Mus musculus [5]. The survival at 24 h in [6] came out at 100%.
Take `CCCCCCCCN(C)[C@H]1CC[C@@H](c2ccc(Cl)c(Cl)c2)c2ccccc21` [listing 2 of 2 here]: the result in the data set on Mus musculus [7] and with Cortical neurone [4] was Active.
Turning to `CN[C@H]1CC[C@@H](c2ccc(Cl)c(Cl)c2)c2ccccc21`, in the data set with Cortical neurone [4], the outcome was Active.
With `CCCCCCCCN(C)[C@@H]1CC[C@@H](c2ccc(Cl)c(Cl)c2)c2ccccc21` (racemic), the Activity entry with Cortical neurone [3] is reported as “Non-Toxic”. Further, in the data set on Cortical neurone [4], the result was Active.
For `CCCCCCCCN(C)[C@H]1CC[C@@H](c2ccc(Cl)c(Cl)c2)c2ccccc21` (racemic), the result with Cortical neurone [4] was Active.
With `COc1ccc(CN[C@@H]2CC[C@@H](c3ccc(Cl)c(Cl)c3)c3ccccc32)cc1OC` (relative stereo), the Activity was 66.65% in the data set with Cortical neurone [8]; “Toxic” in the data set with Cortical neurone [3]; “Dose-Dependent Effect” in the data set with Cortical neurone [4]; 99.79% in the data set with Cortical neurone [9]; 95.48% in the data set with Cortical neurone [10]; 62.06% in the data set on Cortical neurone [11].
For `Clc1ccc([C@@H]2CC[C@@H](NC3CCCCC3)c3ccccc32)cc1Cl` (relative stereo), the Activity is 69.46% with Cortical neurone [8]; “Toxic” in the data set with Cortical neurone [3]; “Dose-Dependent Effect” with Cortical neurone [4]; 97.01% in the data set on Cortical neurone [9]; 102.77% in the data set with Cortical neurone [10]; 61.62% in the data set with Cortical neurone [11].
For the molecule `Cc1cccc(CN[C@@H]2CC[C@@H](c3ccc(Cl)c(Cl)c3)c3ccccc32)c1` (relative stereo), the Activity is 81.18% in the data set with Cortical neurone [8]; “Toxic” in the data set with Cortical neurone [3]; “Dose-Dependent Effect” in the data set on Cortical neurone [4]; 96.85% with Cortical neurone [9]; 102.54% in the data set with Cortical neurone [10]; 65.53% in the data set with Cortical neurone [11].
For the molecule `O=C(Cc1ccccc1)N[C@@H]1CC[C@@H](c2ccc(Cl)c(Cl)c2)c2ccccc21` (relative stereo), the Activity result in the data set with Cortical neurone [3] is on record as “Toxic”. For the same molecule, the result in the data set on Cortical neurone [4] was Active.
On to `CCCCCCN[C@@H]1CC[C@@H](c2ccc(Cl)c(Cl)c2)c2ccccc21` (relative stereo), for which the Activity is 81.04% with Cortical neurone [8]; “Toxic” in the data set on Cortical neurone [3]; “Dose-Dependent Effect” in the data set on Cortical neurone [4]; 98.87% with Cortical neurone [9]; 113.14% with Cortical neurone [10]; 62.38% in the data set on Cortical neurone [11].
Consider `C=CCC(=O)N[C@@H]1CC[C@@H](c2ccc(Cl)c(Cl)c2)c2ccccc21` (relative stereo), for which, in the data set with Cortical neurone [3], the Activity result was “Toxic”. Also, the result in the data set with Cortical neurone [4] was Active.
For the molecule `CC(=O)N[C@@H]1CC[C@@H](c2ccc(Cl)c(Cl)c2)c2ccccc21` (relative stereo), the Activity is 77.31% in the data set with Cortical neurone [8]; “Toxic” in the data set on Cortical neurone [3]; “Dose-Dependent Effect” in the data set with Cortical neurone [4]; 102.6% in the data set with Cortical neurone [9]; 101.23% in the data set on Cortical neurone [10]; 66.22% in the data set with Cortical neurone [11].
Take `CCCC(=O)N[C@@H]1CC[C@@H](c2ccc(Cl)c(Cl)c2)c2ccccc21` (relative stereo): the Activity entry in the data set on Cortical neurone [3] is “Toxic”. The result in the data set with Cortical neurone [4] was Active.
For `Clc1ccc([C@@H]2CC[C@@H](N3CCCC3)c3ccccc32)cc1Cl` (relative stereo), the Activity result with Cortical neurone [3] was “Toxic”. Also, in the data set on Cortical neurone [4], the result was Active.
`N[C@@H]1CC[C@@H](c2ccc(Cl)c(Cl)c2)c2ccccc21` (relative stereo) [DASOTRALINE]: the Activity with Cortical neurone [8] came out at 56.94%; in the data set on Cortical neurone [9] it was 99.05%; in the data set on Cortical neurone [10] it was 95.38%; in the data set with Cortical neurone [11], 57.14%.
As to `CC1=NN(c2ccccc2)C(=O)C1` [EDARAVONE], the Activity was found to be 64.15% with Cortical neurone [8], 98.61% with Cortical neurone [9], 96.6% in the data set on Cortical neurone [10] and 64.39% in the data set with Cortical neurone [11]. For the same molecule, in the data set with SH-SY5Y [2], the viability at 2 µM was 71.3%.
Turning to `NCCc1c[nH]c2ccc(O)cc12` [SEROTONIN], the Activity entry with Cortical neurone [12] is recorded as “Non-Toxic”. Further, the result in the data set on Cortical neurone [13] was inactive.
Regarding `CN[C@H]1CC[C@@H](c2ccc(Cl)c(Cl)c2)c2ccccc21` [SERTRALINE], the Activity in the data set with Cortical neurone [8] (24 h, 10 µM) is 58.85%; with Cortical neurone [3], “Non-Toxic”; in the data set on Cortical neurone [14], “Toxic”; in the data set with Cortical neurone [15] it was 65.9%; in the data set on Cortical neurone [16], “Non-Toxic”; in the data set on Cortical neurone [9], 99.08%. The Activity was 94.25% in the data set on Cortical neurone [10] and 67.21% in the data set on Cortical neurone [11] (24 h, 1 µM). The viability at 20 µM in the data set with SH-SY5Y [1] was found to be 30.5%. Besides, the viability at 2 µM with SH-SY5Y [2] amounted to 81.9%.
